Results as given in ChEMBL document CHEMBL4265870, “Synthesis and biological evaluation of a new series of benzimidazole derivatives as antimicrobial, antiquorum-sensing and antitumor agents” (Eur J Med Chem, 2017).
≈ marks a conversion by molar mass, not a printed value. Calls of active or inactive are those of the source. The rule behind the calls is not given here.

Tests used:
[1] = system: Chromobacterium violaceum; assay: Antiquorum-sensing activity against Chromobacterium violaceum ATCC 12472 assessed as reduction in violacein production at 5000 ug/ml a=; format: functional
Escherichia coli = assay: Antimicrobial activity against Escherichia coli by two fold serial dilution method; format: functional
Bacillus cereus = assay: Antimicrobial activity against Bacillus cereus by two fold serial dilution method; format: functional
Staphylococcus aureus = assay: Antimicrobial activity against Staphylococcus aureus by two fold serial dilution method; format: functional
Aspergillus fumigatus = assay: Antimicrobial activity against Aspergillus fumigatus 293 by two fold serial dilution method; format: functional; details: Af293
HepG2 = assay: Cytotoxicity in human HepG2 cells assessed as reduction in cell viability by MTT assay; format: functional, cell-based
HCT-116 = assay: Cytotoxicity in human HCT116 cells assessed as reduction in cell viability by MTT assay; format: functional, cell-based
MCF7 = assay: Cytotoxicity in human MCF7 cells assessed as reduction in cell viability by MTT assay; format: functional, cell-based
Ehrlich [2] = assay: Antitumor activity against mouse EAC cells implanted in Swiss mouse assessed as mouse survival time at 0.5 mg/mouse dosed for 9 days starting 1 day after tumor cell implantation (reference value: 14.5 days); format: functional
Ehrlich [3] = assay: Antitumor activity against mouse EAC cells implanted in Swiss mouse assessed as increase in life span at 0.5 mg/mouse dosed for 9 days starting 1 day after tumor cell implantation relative to untreated control; format: functional
Ehrlich [4] = assay: Antitumor activity against mouse EAC cells implanted in Swiss mouse assessed as tumor volume at 0.5 mg/mouse dosed for 9 days starting 1 day after tumor cell implantation (reference value: 9.85 ml); format: functional
Ehrlich [5] = assay: Antitumor activity against mouse EAC cells implanted in Swiss mouse assessed as viable cell count per 100 ul at 0.5 mg/mouse dosed for 9 days starting 1 day after tumor cell implantation (reference value: 83.2 x 10^6/100 ul); format: functional
Mus musculus [6] = assay: Toxicity in mouse EAC cells implanted Swiss mouse assessed as hemoglobin level at 0.5 mg/mouse dosed for 9 days starting 1 day after tumor cell implantation (reference value: 8.15 g/dl); format: organism-based; details: in vivo
Mus musculus [7] = assay: Toxicity in mouse EAC cells implanted Swiss mouse assessed as RBC count at 0.5 mg/mouse dosed for 9 days starting 1 day after tumor cell implantation (reference value: 3.69 10^6/mm3)); format: organism-based; details: in vivo
Mus musculus [8] = assay: Toxicity in mouse EAC cells implanted Swiss mouse assessed as WBC count at 0.5 mg/mouse dosed for 9 days starting 1 day after tumor cell implantation (reference value: 23.96 10^3/mm3)); format: organism-based; details: in vivo
WI-38 = assay: Cytotoxicity in human WI38 cells assessed as reduction in cell viability by MTT assay; format: cell-based
Calf thymus DNA = assay: Binding affinity to calf thymus DNA by TLC plate based assay; format: nucleic-acid assay; details: Bos taurus

| SMILES | diameter of the inhibition zone (DIZ) [1] | MIC (Escherichia coli) | MIC (Bacillus cereus) | MIC (Staphylococcus aureus) | MIC (Aspergillus fumigatus) | IC50 (HepG2) | IC50 (HCT-116) | IC50 (MCF7) | MST (Ehrlich [2]) | ILS (Ehrlich [3]) | Activity (Ehrlich [4]) | Activity (Ehrlich [5]) | Activity (Mus musculus [6]) | Activity (Mus musculus [7]) | Activity (Mus musculus [8]) | IC50 (WI-38) | Activity (Calf thymus DNA) |
| --- | --- | --- | --- | --- | --- | --- | --- | --- | --- | --- | --- | --- | --- | --- | --- | --- | --- |
| Oc1cc(O)c2c(c1)O[C@H](c1ccc(O)c(O)c1)[C@@H](O)C2 [CIANIDANOL] | 2 mm |  |  |  |  |  |  |  |  |  |  |  |  |  |  |  |  |
| COc1ccc2c(c1)CCC/C2=N\NCc1nc2ccccc2[nH]1 | <2 mm | > 2500 µg/mL | > 2500 µg/mL | 1250 µg/mL (≈ 3.9 mM) | > 2500 µg/mL | 80 µM | 41 µM | 63 µM |  |  |  |  |  |  |  |  |  |
| CC1=NN(Cc2nc3ccccc3[nH]2)C(=O)C1 | 4 mm | > 2500 µg/mL | 1250 µg/mL (≈ 5.48 mM) | 156 µg/mL (≈ 0.685 mM) | 312 µg/mL (≈ 1.37 mM) | 54 µM | 42 µM | 62 µM | 31.5 days | 110.34% | 4.16 mL | 45.38 ×10⁶ No_unit | 11.47 g/dL | 4.55 ×10⁶ /mm3 | 11.26 ×10³ /mm3 | 246 µM | Active |
| O=C1c2ccccc2C(=O)N1NCc1nc2ccccc2[nH]1 | 4 mm | > 2500 µg/mL | > 2500 µg/mL | > 2500 µg/mL | 1250 µg/mL (≈ 4.28 mM) | 32 µM | 31 µM | 37 µM | 46.7 days | 222.07% | 2.15 mL | 21.95 ×10⁶ No_unit | 13.21 g/dL | 5.52 ×10⁶ /mm3 | 7.11 ×10³ /mm3 | 322 µM | Active |
| CC[n+]1c(-c2ccccc2)c2cc(N)ccc2c2ccc(N)cc21 |  |  |  |  |  |  |  |  |  |  |  |  |  |  |  |  | Active |
| Fc1ccc2nc(NCc3nc4ccccc4[nH]3)sc2c1 | 11 mm | > 2500 µg/mL | > 2500 µg/mL | 156 µg/mL (≈ 0.524 mM) | 1250 µg/mL (≈ 4.19 mM) | 233 µM | 238 µM | 242 µM |  |  |  |  |  |  |  |  | Active |
| O=[N+]([O-])c1ccc2[nH]c(CNc3nc4ccc(F)cc4s3)nc2c1 | 6 mm | > 2500 µg/mL | > 2500 µg/mL | > 2500 µg/mL | 1250 µg/mL (≈ 3.64 mM) | 263 µM | 253 µM | 291 µM |  |  |  |  |  |  |  |  |  |
| COc1ccc2c(c1)CCC/C2=N\NCc1nc2cc([N+](=O)[O-])ccc2[nH]1 | <2 mm | > 2500 µg/mL | > 2500 µg/mL | > 2500 µg/mL | 2500 µg/mL (≈ 6.84 mM) | 96 µM | 45 µM | 78 µM |  |  |  |  |  |  |  |  |  |
| CCOC(=O)c1c(NCc2nc3ccccc3[nH]2)sc2c1CCCCC2 | 3 mm | > 2500 µg/mL | > 2500 µg/mL | > 2500 µg/mL | > 2500 µg/mL | 43 µM | 31 µM | 40 µM | 39 days | 168.9% | 3.23 mL | 29.65 ×10⁶ No_unit | 12.13 g/dL | 4.89 ×10⁶ /mm3 | 9.11 ×10³ /mm3 | 58 µM | inactive |
| CC1(C)S[C@@H]2[C@H](NC(=O)[C@H](N)c3ccccc3)C(=O)N2[C@H]1C(=O)O [AMPICILLIN] |  | 19.5 µg/mL (≈ 0.0559 mM) | 1250 µg/mL (≈ 3.58 mM) | 312 µg/mL (≈ 0.894 mM) |  |  |  |  |  |  |  |  |  |  |  |  |  |
| O=c1[nH]cc(F)c(=O)[nH]1 [FLUOROURACIL] |  |  |  |  |  | 61 µM | 41 µM | 41.5 µM | 49 days | 237.93% | 1.6 mL | 20.17 ×10⁶ No_unit | 12.96 g/dL | 5.21 ×10⁶ /mm3 | 8.86 ×10³ /mm3 | 51 µM |  |
| OC(Cn1cncn1)(Cn1cncn1)c1ccc(F)cc1F [FLUCONAZOLE] |  |  |  |  | > 2500 µg/mL |  |  |  |  |  |  |  |  |  |  |  |  |
| O=[N+]([O-])c1ccc2ncccc2c1NCc1nc2ccccc2[nH]1 | 8 mm | 625 µg/mL (≈ 1.96 mM) | 156 µg/mL (≈ 0.489 mM) | 1250 µg/mL (≈ 3.91 mM) | 1250 µg/mL (≈ 3.91 mM) | 259 µM | 204 µM | 237 µM |  |  |  |  |  |  |  |  | Active |
| O=[N+]([O-])c1ccc2[nH]c(CNc3nc(-c4ccccc4)cs3)nc2c1 | 6 mm | > 2500 µg/mL | > 2500 µg/mL | > 2500 µg/mL | 1250 µg/mL (≈ 3.56 mM) | 226 µM | 198 µM | 254 µM |  |  |  |  |  |  |  |  |  |
| NS(=O)(=O)c1nnc(NCc2nc3ccccc3[nH]2)s1 | <2 mm | 625 µg/mL (≈ 2.01 mM) | > 2500 µg/mL | 625 µg/mL (≈ 2.01 mM) | > 2500 µg/mL | 162 µM | 156 µM | 228 µM |  |  |  |  |  |  |  |  | Active |
| O=[N+]([O-])c1ccc2[nH]c(CN3CCN(c4ccc(F)cc4)CC3)nc2c1 | <2 mm | 2500 µg/mL (≈ 7.03 mM) | 2500 µg/mL (≈ 7.03 mM) | 1250 µg/mL (≈ 3.52 mM) | 2500 µg/mL (≈ 7.03 mM) | 22 µM | 14 µM | 15 µM | 44.5 days | 206.98% | 2.32 mL | 23.54 ×10⁶ No_unit | 13.15 g/dL | 5.36 ×10⁶ /mm3 | 7.34 ×10³ /mm3 | 298 µM | Active |
| Cc1c(NCc2nc3cc([N+](=O)[O-])ccc3[nH]2)c(=O)n(-c2ccccc2)n1C | <2 mm | 2500 µg/mL (≈ 6.61 mM) | 1250 µg/mL (≈ 3.3 mM) | 625 µg/mL (≈ 1.65 mM) | 2500 µg/mL (≈ 6.61 mM) | 93 µM | 44 µM | 78 µM |  |  |  |  |  |  |  |  |  |
| O=[N+]([O-])c1ccc2[nH]c(CNc3c([N+](=O)[O-])ccc4ncccc34)nc2c1 | 4 mm | 1250 µg/mL (≈ 3.43 mM) | 312 µg/mL (≈ 0.858 mM) | 2500 µg/mL (≈ 6.86 mM) | 2500 µg/mL (≈ 6.86 mM) | 265 µM | 256 µM | 274 µM |  |  |  |  |  |  |  |  | Active |
| CC1=NN(Cc2nc3cc([N+](=O)[O-])ccc3[nH]2)C(=O)C1 | 3 mm | > 2500 µg/mL | 1250 µg/mL (≈ 4.57 mM) | 2500 µg/mL (≈ 9.15 mM) | 625 µg/mL (≈ 2.29 mM) | 265 µM | 200 µM | 281 µM |  |  |  |  |  |  |  |  |  |
| NS(=O)(=O)c1nnc(NCc2nc3cc([N+](=O)[O-])ccc3[nH]2)s1 | <2 mm | > 2500 µg/mL | > 2500 µg/mL | > 2500 µg/mL | > 2500 µg/mL | 184 µM | 176 µM | 230 µM |  |  |  |  |  |  |  |  |  |
| Cc1c(NCc2nc3ccccc3[nH]2)c(=O)n(-c2ccccc2)n1C | 6 mm | 2500 µg/mL (≈ 7.5 mM) | 1250 µg/mL (≈ 3.75 mM) | 312 µg/mL (≈ 0.937 mM) | 625 µg/mL (≈ 1.87 mM) | 63 µM | 38 µM | 53 µM |  |  |  |  |  |  |  |  | Active |
